“Also recorded” adds a separate entry of the source. Where a SMILES comes first, the peptide text is derived from it. Where no end group is shown, it is not given here. [ ]: non-standard residue; d: D form. sY = N[C@@H](Cc1ccc(OS(=O)(=O)O)cc1)C(=O)O
Columns and labels:
thrombin [1] = biological target: T1, thrombin (Homo sapiens, UniProt P00734); test: Peptide inhibition of 125I-PPACK-thrombin binding to peak 1 fibrin clot; conditions: for IC50 / inhibition of thrombin binding to peak 1 fibrin (in words): sulfated peptides; for IC50 for inhibition of thrombin binding to peak 1 fibrin (in words): non-sulfated γ' peptides containing 416 T→V and 420 S→A substitutions, FIG. 8
T1 construct: PPACK-thrombin was prepared by adding a five-fold molar excess of PPACK (Calbiochem, San Diego, Calif.) to α-thrombin; purchased Enzyme Research Laboratories, Inc., South Bend, Ind
Protocol: To determine the capacity of the peptides to inhibit thrombin binding, a 200 μl clot containing fibrin (0.5 nmoles) and ^125 I-PPACK-thrombin (0.1 nmoles) in 0.05M HEPES, 0.10M NaCl buffer, pH 7.4, and 0.01% (w/v) polyethylene glycol 8000 was formed in the presence of varying concentrations of peptide. The amount of thrombin bound to the clot was determined by counting the ^125 I radioactivity in a gamma counter. […] For most studies, peak 1 fibrin was used to assess the inhibitory capacity of the peptides. Similar qualitative thrombin-binding results were obtained using peak 2 fibrin (FIG. 6), but higher levels of peptide were needed to inhibit binding since this molecule contains the high affinity thrombin-binding site.

thrombin [2] = biological target: T1, thrombin; test: Peptide inhibition of 125I-PPACK-thrombin binding to peak 2 fibrin clot; conditions: FIG. 6
thrombin [3] = conditions: cited from earlier work

| IC50 for inhibition of thrombin binding to peak 1 fibrin (in words) (thrombin [1]) | Compound | IC50 / inhibition of thrombin binding to peak 1 fibrin (in words) (thrombin [1]; FIG. 7) | also measured |
| --- | --- | --- | --- |
| no significant increases in IC50 | EHPAEVEYEALYPEDDL [γ' 411-427 (416V/420A), E H P A E V E Y E A L Y P E D D L] | – | – |
| no significant increases in IC50 | PEHPAEVEYEALYPEDDL [γ' 410-427 (416V/420A)] | – | – |
| no significant increases in IC50 | VRPEHPAEVEYEALYPEDDL [γ' 408-427 (416V/420A), VRPEHPAEVEYEALYPEDDL] | – | – |

The next lines start with the compound.

| Compound | IC50 for inhibition of thrombin binding to peak 1 fibrin (in words) (thrombin [1]) | IC50 / inhibition of thrombin binding to peak 1 fibrin (in words) (thrombin [1]; FIG. 7) | also measured |
| --- | --- | --- | --- |
| CC(C)[C@H](NC(=O)[C@H](CCC(=O)O)NC(=O)[C@H](C)NC(=O)[C@@H]1CCCN1C(=O)[C@H](Cc1c[nH]cn1)NC(=O)[C@H](CCC(=O)O)NC(=O)[C@@H]1CCCN1)C(=O)N[C@@H](CCC(=O)O)C(=O)N[C@@H](Cc1ccc(OS(=O)(=O)O)cc1)C(=O)O [γ' 410-418(416V), P E H P A E V E Y] (H-PEHPAEVE[sY]-OH) | – | neither the amino-terminal γ' 410-418(416V) nor the carboxy-terminalγ' 419-427(420A) segment of this peptide had any significant inhibition of thrombin binding | – |
| CC(C)C[C@H](NC(=O)[C@H](CC(=O)O)NC(=O)[C@H](CC(=O)O)NC(=O)[C@H](CCC(=O)O)NC(=O)[C@@H]1CCCN1C(=O)[C@H](Cc1ccc(OS(=O)(=O)O)cc1)NC(=O)[C@H](CC(C)C)NC(=O)[C@H](C)NC(=O)[C@@H](N)CCC(=O)O)C(=O)O [γ' 419-427(420A), E A L Y P E D D L] (H-EAL[sY]PEDDL-OH) | – | nor the carboxy-terminalγ' 419-427(420A) segment of this peptide had any significant inhibition of thrombin binding | – |
| AVRPEHPAETEYESLYPEDDL (AVRPEHPAETEYESLYPEDDL) [sulfated γ' A408-427] | – | similar | IC50 (thrombin [2]; peak 2 fibrin, tyrosine-sulfated peptides): 14 µM; inhibitory effect on thrombin binding to peak 2 fibrin (in words) (thrombin [2]; sulfated versus non-sulfated peptide): greater inhibitory effect |
| AEVEYEALYPEDDL [γ' 414-427 (416V/420A), A E V E Y E A L Y P E D D L] | no significant increases in IC50; also recorded: lowest IC50 | – | – |
| E H P A E T E F E S L Y P E D D L (EHPAETEFESLYPEDDL) [γ' 411-427/418F, tyrosine at 418 substituted with phenylalanine] | – | increase in IC50 compared with the doubly tyrosine-sulfated peptide; also recorded: lower IC50 than non-sulfated γ' A408-427 | – |
| E H P A E T E Y E S L Y P E D D L (EHPAETEYESLYPEDDL) [sulfated γ' 411-427, doubly tyrosine-sulfated native γ' peptide] | – | Even greater inhibitory effects | IC50 / inhibition of thrombin binding to peak 1 fibrin (in words) (thrombin [1]; FIG. 7, listed as γ' 411-472): similar |
| fibrinogen | – | – | Km (thrombin [3]; fibrinogen peptides or fibrinogen itself, read-out: Km estimated from peptide A release): 6 to 11 µM; Kd (thrombin [3]; substrate site, read-out: Kd derived from similar kinetic studies): 1300 to 2600 nM |
